# Strand notation (5' to 3'): a small letter for the sugar, then the base; units joined by * are phosphorothioate-linked, units joined directly phosphodiester-linked; [ ] holds rarer units or linkages, { } end groups; capitals alone tell only the bases. k = constrained ethyl (cEt); [5mC] = 5-methylcytosine; d = 2'-deoxy (DNA)
# Tested on: human SMAD7 mRNA
# Assay: Antisense inhibition of human SMAD7 mRNA expression in Hep3B cells by 3-10-3 cEt gapmers, 10,000 nM, electroporation (Example 2)
# Assay type: cell-based
# Conditions: Hep3B cells, 10,000 nM antisense oligonucleotide, electroporation, approximately 24 hours, RT-PCR primer probe set RTS5062, relative to untreated control cells
# Outline: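 Hep3B cells (20,000/well) were electroporated with 10,000 nM 3-10-3 cEt gapmer (16-mer, phosphorothioate, 5-methylcytosines) and harvested after about 24 h. SMAD7 mRNA quantified by RT-qPCR with primer probe set RTS5062, normalized to total RNA by RiboGreen; percent inhibition relative to untreated cells.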
row,Substance,% Inhibition [%]
1,798906 (kG*k[5mC]*kT*dA*d[5mC]*d[5mC]*dG*dG*d[5mC]*dT*dG*dT*dT*kG*kA*kA; antisense) [compound 798906],0
2,798907 (kG*k[5mC]*kG*dG*d[5mC]*dT*dA*d[5mC]*d[5mC]*dG*dG*d[5mC]*dT*kG*kT*kT; antisense) [compound 798907],0
3,798908 (k[5mC]*kG*k[5mC]*dG*dG*d[5mC]*dT*dA*d[5mC]*d[5mC]*dG*dG*d[5mC]*kT*kG*kT; antisense) [compound 798908],0
4,798909 (kA*k[5mC]*kG*d[5mC]*dG*dG*d[5mC]*dT*dA*d[5mC]*d[5mC]*dG*dG*k[5mC]*kT*kG; antisense) [compound 798909],42
5,798910 (k[5mC]*kA*k[5mC]*dG*d[5mC]*dG*dG*d[5mC]*dT*dA*d[5mC]*d[5mC]*dG*kG*k[5mC]*kT; antisense) [compound 798910],42
6,798911 (kG*k[5mC]*kA*d[5mC]*dG*d[5mC]*dG*dG*d[5mC]*dT*dA*d[5mC]*d[5mC]*kG*kG*k[5mC]; antisense) [compound 798911],0
7,798912 (kT*k[5mC]*k[5mC]*dG*d[5mC]*dA*d[5mC]*dG*d[5mC]*dG*dG*d[5mC]*dT*kA*k[5mC]*k[5mC]; antisense) [compound 798912],22
8,798913 (k[5mC]*k[5mC]*k[5mC]*dT*d[5mC]*d[5mC]*dG*d[5mC]*dA*d[5mC]*dG*d[5mC]*dG*kG*k[5mC]*kT; antisense) [compound 798913],21
9,798914 (kG*kT*k[5mC]*d[5mC]*d[5mC]*d[5mC]*dT*d[5mC]*d[5mC]*dG*d[5mC]*dA*d[5mC]*kG*k[5mC]*kG; antisense) [compound 798914],56
10,798925 (kA*kG*kT*dA*dG*dT*dT*dT*dG*dA*dA*dG*dT*kG*kT*kG; antisense) [compound 798925],0
11,798926 (antisense k[5mC]*kA*kA*dA*dG*dT*dA*dG*dT*dT*dT*dG*dA*kA*kG*kT) [compound 798926],17
12,798927 (antisense k[5mC]*kA*kG*d[5mC]*dA*dA*dA*dG*dT*dA*dG*dT*dT*kT*kG*kA) [compound 798927],0
13,798928 (antisense kT*kA*kG*d[5mC]*dA*dG*d[5mC]*dA*dA*dA*dG*dT*dA*kG*kT*kT) [compound 798928],6
14,798929 (antisense kT*kA*kT*dT*dA*dG*d[5mC]*dA*dG*d[5mC]*dA*dA*dA*kG*kT*kA) [compound 798929],41
15,798930 (antisense kG*kA*kA*dA*dA*dT*dA*dT*dT*dA*dG*d[5mC]*dA*kG*k[5mC]*kA) [compound 798930],62

# Same assay, conditions: Hep3B cells, electroporation with 10,000 nM antisense oligonucleotide, approximately 24 hours, SMAD7 mRNA by RT-PCR (RTS5062), relative to untreated control cells
row,Substance,% Inhibition [%]
1,798905 (kG*kG*k[5mC]*dT*dG*dT*dT*dG*dA*dA*dG*dA*dT*kG*kA*k[5mC]; antisense) [compound 798905],35
2,798915 (kT*k[5mC]*kT*dG*dT*d[5mC]*d[5mC]*d[5mC]*d[5mC]*dT*d[5mC]*d[5mC]*dG*k[5mC]*kA*k[5mC]; antisense) [compound 798915],7
3,798916 (k[5mC]*kG*k[5mC]*dT*d[5mC]*dT*dG*dT*d[5mC]*d[5mC]*d[5mC]*d[5mC]*dT*k[5mC]*k[5mC]*kG; antisense) [compound 798916],13
4,798917 (kG*k[5mC]*kT*d[5mC]*dA*d[5mC]*dG*d[5mC]*dT*d[5mC]*dT*dG*dT*k[5mC]*k[5mC]*k[5mC]; antisense) [compound 798917],0
5,798918 (kT*k[5mC]*kA*dG*d[5mC]*dT*d[5mC]*dA*d[5mC]*dG*d[5mC]*dT*d[5mC]*kT*kG*kT; antisense) [compound 798918],44
6,798919 (kT*kG*k[5mC]*dT*d[5mC]*dA*dG*d[5mC]*dT*d[5mC]*dA*d[5mC]*dG*k[5mC]*kT*k[5mC]; antisense) [compound 798919],45
7,798920 (kG*k[5mC]*k[5mC]*dT*dG*d[5mC]*dT*d[5mC]*dA*dG*d[5mC]*dT*d[5mC]*kA*k[5mC]*kG; antisense) [compound 798920],58
8,798921 (kG*kG*k[5mC]*d[5mC]*dT*dG*d[5mC]*dT*d[5mC]*dA*dG*d[5mC]*dT*k[5mC]*kA*k[5mC]; antisense) [compound 798921],42
9,798922 (kA*kA*kG*dT*dG*dT*dG*dG*d[5mC]*d[5mC]*dT*dG*d[5mC]*kT*k[5mC]*kA; antisense) [compound 798922],59
10,798923 (kT*kT*kG*dA*dA*dG*dT*dG*dT*dG*dG*d[5mC]*d[5mC]*kT*kG*k[5mC]; antisense) [compound 798923],54

# Same assay, conditions: Hep3B cells, electroporation with 10,000 nM antisense oligonucleotide, approximately 24 hours, primer probe set RTS5062, relative to untreated control cells
Substance,% Inhibition [%],% inhibition of SMAD7 mRNA expression [%]
798924 (kA*kG*kT*dT*dT*dG*dA*dA*dG*dT*dG*dT*dG*kG*k[5mC]*k[5mC]; antisense) [compound 798924],43,–
798932 (antisense k[5mC]*kT*k[5mC]*dA*dG*dG*dA*dG*dG*dA*dA*dA*dA*kT*kA*kT) [compound 798932],–,0
798933 (antisense kG*k[5mC]*kA*d[5mC]*dT*d[5mC]*dA*dG*dG*dA*dG*dG*dA*kA*kA*kA) [compound 798933],–,52
798934 (antisense kG*k[5mC]*kA*dA*dG*d[5mC]*dA*d[5mC]*dT*d[5mC]*dA*dG*dG*kA*kG*kG) [compound 798934],–,40
798935 (antisense kA*kA*kA*dG*d[5mC]*dA*dA*dG*d[5mC]*dA*d[5mC]*dT*d[5mC]*kA*kG*kG) [compound 798935],48,–
798936 (antisense kG*k[5mC]*kA*dT*dG*dA*dA*dA*dA*dG*d[5mC]*dA*dA*kG*k[5mC]*kA) [compound 798936],14,–
798937 (antisense kG*kT*kT*dT*dG*d[5mC]*dA*dT*dG*dA*dA*dA*dA*kG*k[5mC]*kA) [compound 798937],35,–
798938 (antisense kA*k[5mC]*k[5mC]*dA*dA*dA*dG*dA*dG*dT*dT*dT*dG*k[5mC]*kA*kT) [compound 798938],15,–
798939 (antisense kA*k[5mC]*kG*dA*d[5mC]*d[5mC]*dA*dA*dA*dG*dA*dG*dT*kT*kT*kG) [compound 798939],46,–
798940 (antisense kA*kA*kA*dA*d[5mC]*dG*dA*d[5mC]*d[5mC]*dA*dA*dA*dG*kA*kG*kT) [compound 798940],29,–
798941 (antisense kA*kA*kA*dA*dA*dA*dA*d[5mC]*dG*dA*d[5mC]*d[5mC]*dA*kA*kA*kG) [compound 798941],40,–
798942 (antisense k[5mC]*kG*kA*dG*dA*dA*dG*dA*dA*dG*dA*dA*dA*kA*k[5mC]*k[5mC]) [compound 798942],35,–
798943 (antisense k[5mC]*kG*kA*dG*dG*dA*d[5mC]*dG*dA*dG*dA*dA*dG*kA*kA*kG) [compound 798943],–,13
798944 (antisense kA*kA*kA*d[5mC]*dG*dA*dG*dG*dA*d[5mC]*dG*dA*dG*kA*kA*kG) [compound 798944],–,3
798945 (antisense k[5mC]*kA*k[5mC]*dA*dA*dA*d[5mC]*dG*dA*dG*dG*dA*d[5mC]*kG*kA*kG) [compound 798945],–,19
798946 (antisense kG*kA*kA*d[5mC]*dA*d[5mC]*dA*dA*dA*d[5mC]*dG*dA*dG*kG*kA*k[5mC]) [compound 798946],–,4
798947 (antisense kA*k[5mC]*kA*dG*dA*dA*d[5mC]*dA*d[5mC]*dA*dA*dA*d[5mC]*kG*kA*kG) [compound 798947],–,52
798948 (antisense kG*k[5mC]*kG*dA*dA*dA*d[5mC]*dA*dA*dA*dA*d[5mC]*dA*kG*kA*kA) [compound 798948],–,56
798949 (antisense kA*kG*kA*dG*d[5mC]*dG*dA*dA*dA*d[5mC]*dA*dA*dA*kA*k[5mC]*kA) [compound 798949],–,55
798950 (antisense k[5mC]*kA*kA*dA*dG*dA*dG*d[5mC]*dG*dA*dA*dA*d[5mC]*kA*kA*kA) [compound 798950],–,0
798951 (antisense kT*k[5mC]*kT*d[5mC]*dA*dA*dA*dG*dA*dG*d[5mC]*dG*dA*kA*kA*k[5mC]) [compound 798951],–,37
798952 (antisense kT*kA*kT*dT*dT*d[5mC]*dT*d[5mC]*dA*dA*dA*dG*dA*kG*k[5mC]*kG) [compound 798952],–,61
798953 (antisense kA*kG*k[5mC]*dT*dA*dT*dT*dT*d[5mC]*dT*d[5mC]*dA*dA*kA*kG*kA) [compound 798953],17,–
798955 (antisense kT*kT*k[5mC]*dA*dT*dA*dA*dG*d[5mC]*dT*dA*dT*dT*kT*k[5mC]*kT) [compound 798955],15,–
798956 (antisense k[5mC]*kT*kT*dT*dT*d[5mC]*dA*dT*dA*dA*dG*d[5mC]*dT*kA*kT*kT) [compound 798956],22,–
798957 (antisense kA*kT*kT*d[5mC]*dT*dT*dT*dT*d[5mC]*dA*dT*dA*dA*kG*k[5mC]*kT) [compound 798957],28,–
798958 (antisense kA*kA*k[5mC]*dA*dA*dT*dT*d[5mC]*dT*dT*dT*dT*d[5mC]*kA*kT*kA) [compound 798958],0,–
